Source: US20240300945A1, “CLY SERIES COMPOUND, PREPARATION METHOD THEREFOR AND USE THEREOF IN PREPARATION OF DRUGS” (NANJING WELLBEST PHARMACEUTICAL CO., LTD, priority 2021, published 2024)

Tested on: RA model
Assay: Rheumatoid arthritis (RA) model (Freund's adjuvant complete)
Format: in vivo, Wistar rats
Conditions: RA rats, gavage 10 mg/kg once a day, 21 days; for IL-10 in serum / IL-17 in serum: ELISA; for Joint score (arthritis score): maximum 16 points
Protocol: Freund's Adjuvant Complete (FCA, purchased from Sigma, USA); IL-10 ELISA kit (Lianke Biotechnology Co., Ltd.); IL-17 ELISA kit (Raybiotech, USA). Eighteen 5-week-old female Wistar rats were randomly divided into the control group, RA model group, and CLY series compound treatment group, with 6 rats in each group. The control group: disinfected the right toe of rats with 75% alcohol, and injected 0.15 mL physiological saline subcutaneously into the right toe of rats. The RA model group: On the first day of the experiment, each rat was routinely disinfected, and 0.15 mL of FCA was injected subcutaneously into the right foot of the rat. The CLY series compound treatment group: On the first day after the experiment, each rat was routinely disinfected, and 0.15 mL of FCA was injected subcutaneously into the right plantar of the rat. After 7 days, CLY series compound was administered by gavage with a dose of 10 mg/kg once a day. The RA model group and control group were administered by gavage with normal saline (10 mg/kg·d) every day for 21 consecutive days. On the 21st day after the intervention of CLY series compounds, 3 mL of blood was collected from the heart of rats, and the serum was isolated. The levels of IL-10 and IL-17 in the serum of rats were detected by ELISA. After the 21st day of intervention, the arthritis score of each group of rats was measured, and the swelling degree of the right toe joint of each group of rats was measured. According to the inflammatory reaction of RA rats, the severity of the ankle joint was scored as 0 to 4, which was normal; 1 point, slightly red and slightly swollen ankle joint; 2 points: erythema and slight swelling from ankle joint to metatarsal joint or metacarpal joint; 3 points: erythema and moderate swelling from ankle joint to metacarpal joint or metatarsophalangeal joint; 4 points, the ankle joint to toe joint were severely red and swollen. Added the limb scores of each rat as the arthritis score, and the maximum score was 16 points.

Row | Structure (SMILES) | Body mass [g] | Swelling degree (right toe joint) [mm] | IL-10 in serum [pg/mL] | IL-17 in serum [pg/mL] | Joint score (arthritis score)
1 | CN1CCC[C@@H](N(C(=O)c2ccc(-n3nnc4cccnc43)cc2)c2ncccc2Cl)C1 [CLY-1, (R)-4-(3H-[1,2,3]triazolo[4,5-b]pyridin-3-yl)-N-(3-chloropyridin-2-yl)-N-(1-methylpiperidin-3-yl)benzamide] | 354.5 ± 13.48 | 9.7 ± 0.68 | 65.36 ± 6.78 | 46.15 ± 4.23 | 4.35 ± 0.37
2 | CCN1CCC[C@@H](N(C(=O)c2ccc(-n3nnc4cccnc43)cc2)c2ncccc2Cl)C1 [CLY-2, (R)-4-(3H-[1,2,3]triazolo[4,5-b]pyridin-3-yl)-N-(3-chloropyridin-2-yl)-N-(1-ethylpiperidin-3-yl)benzamide] | 358.2 ± 13.92 | 9.4 ± 0.53 | 67.03 ± 7.02 | 46.23 ± 3.96 | 4.21 ± 0.29
3 | O=C(c1ccc(-n2nnc3cccnc32)cc1)N(c1ncccc1Cl)[C@@H]1CCNC1 [CLY-8, (R)-4-(3H-[1,2,3]triazolo[4,5-b]pyridin-3-yl)-N-(3-chloropyridin-2-yl)-N-(pyrrolidin-3-yl)benzamide] | 363.5 ± 13.63 | 9.5 ± 0.72 | 66.75 ± 6.78 | 43.51 ± 4.16 | 4.32 ± 0.41
4 | O=C(c1ccc(-c2ccccc2Cl)cc1)N(c1ncccc1Cl)[C@@H]1CCCNC1 [CLY-36] | 352.6 ± 12.96 | 9.3 ± 0.51 | 58.96 ± 5.89 | 44.18 ± 3.97 | 4.46 ± 0.42
